The test system of assay [1] is HEL cells. Kind of assay: Proliferation assay, cell count after trypan blue staining, HEL. Format: cell-based. The following applies: 1 or 5 μM, 24-72 h, by comparison with PFI-1. As for the experimental part: (§1) Cell count and viability was determined after trypan blue staining. The appropriate concentrations of the inhibitors per ml of medium were added, or the correspondingly highest volume of DMSO was added as control group.
(§2) The cell growth described here is referred to as proliferation, and gives information as to the cell divisions that proceeded in the specified period.

Assay [2] concerns PARP1 cleavage in HEL cells. Kind of assay: PARP1 cleavage Western blot (apoptosis), HEL. Format: cell-based. The settings on record: 5 μM. On the procedure:
(§3) Cell lysates were produced with RIPA lysis buffer (50 mM Tris pH 7.4, 150 mM sodium chloride, 1 mM EDTA, 1% Triton-X, 15% glycerol, 0.5% sodium deoxycholate, and protease/phosphatase inhibitors). Protein concentrations were determined by the Bradford Protein Assay using a Nanodrop Spectrometer (NanoDrop 2000/2000c system, Thermo Fisher Scientific, Darmstadt, Germany) at 595 nm. To 25 μg of protein lysates was added 4xLämmli sample buffer, followed by denaturing at 65° C. for 5 min and introduction into the SDS-Page. The proteins were transferred by the wet blot method in Towbin buffer (3 g Tris, 14.4 g glycine, 5% methanol per litre of ddH2O) to a PVDF membrane at 100 mA overnight. The membrane was blocked with 10% BSA in TBS-T buffer (20 mM Tris-HCl, pH 7.6, 137 mM NaCl, 0.05% IGEPAL). The primary antibodies were incubated at 4° C. overnight, and the HRP-labelled antibodies at room temperature with the membrane for […]. The proteins were detected by means of PCA-ECL solution using a chemiluminescence detector (Fusion SL, PeqLab).
In addition, a possible induction of apoptosis in the cell lines described by compound MF2 was examined. […] Protein concentrations were determined with the Bradford protein assay using a Nanodrop Spectrometer at 595 nm. […] The proteins were detected by means of PCA-ECL solution using a chemiluminescence detector (Fusion SL, PeqLab). […]

The test system of a further assay is BRD4. In words: Thermal shift assay (BromoMELT assay), BRD4. Format: binding. The following applies: 10 μM, duplicates, versus DMSO control. On the procedure: (§4) The experiment was conducted in duplicates at a concentration of 10 μM.
The subject of assay [3] is Molm-14 cells. Kind of assay: Viability from trypan blue staining, Molm-14. It counts as cell-based. The settings on record: 5 μM, compared to PFI-1. As for the experimental part:
as §1
During the study of cell proliferation, the viability of the cell lines was likewise determined from the trypan blue staining. Trypan blue cannot penetrate into living cells.

For assay [4], the system named is PBMC or CD34+ cells from healthy donors. In words: CFU assay, healthy controls. It counts as cell-based, human. As for the experimental part:
(§5) With the aid of the CFU assay, it is possible to determine the colony-forming capacity of individual cells in a semisolid methylcellulose medium (MethoCult H4434, StemCell Technologies, Cologne, Germany). The number of colonies was determined after 7-11 days.
CD34+ cells (G-CSF mobilized from stem cell donors) from healthy donors: 2×10^4 cells/ml; PBMCs from the healthy subjects: 4×10^5 cells/ml.
For this purpose, mononuclear cells (PBMC: mononuclear cells from peripheral blood) or CD34-positive stem cells (CD34+ cells) were isolated from the blood of four healthy controls and three AML or MPN patients and introduced into semisolid medium, to each of which 1 μM or 5 μM of MFS-2 or PFI-1 have been added. Individual cells in the CFU assay form cell colonies in culture after 12 days, unless the formation thereof is prevented by inhibitors.

In assay [5] the test system is HEL cells. Kind of assay: Cell cycle analysis (propidium iodide, flow cytometry), HEL. The settings on record: compared to PFI-1. It counts as cell-based. As for the experimental part:
The influence of the inhibitors used on the cell cycle was examined by means of propidium iodide staining of the fixed cells. For this purpose, the cells were fixed with 95% ethanol at −20° C., RNA was destroyed by RNase (100 μg/ml) at 37° C. for […], and the DNA was stained by means of propidium iodide (50 μg/ml). Using a flow cytometer (Gallios (Beckman Coulter, Krefeld, Germany)), the cell cycle phases were analysed, and the data were evaluated by means of FlowJo Software (Version 10).
During the proliferation, the cells go through different stages of the cell cycle in which genomic DNA is replicated, the cell nucleus is broken down and cell division takes place, resulting in two identical cells.

Assay [6] deals with proteins from the BET family. In words: Thermal shift assay (BromoMELT assay), BET family. Format: binding. The settings on record: 10 μM, duplicates, versus DMSO control; apart from BRDT-2. On the procedure: as §4
Assay [7] concerns PARP1 cleavage in Molm-14 cells. In words: PARP1 cleavage Western blot (apoptosis), Molm-14. The following applies: 5 μM. It counts as cell-based. On the procedure: as §3
In addition, a possible induction of apoptosis in the cell lines described by compound MF2 was examined. […] The cleavage of the PARP1 protein is an indicator of incipient apoptosis (cell death) of the cells, and the cleavage products of PARP1 were accordingly examined by Western blot. In detail, after the inhibitor treatment, cell lysates were produced with RIPA lysis buffer. Protein concentrations were determined with the Bradford protein assay using a Nanodrop Spectrometer at 595 nm. To 25 μg of the protein lysates was added 4×Lämmli sample buffer, followed by denaturing at 65° C. for 5 min and introduction into the SDS-Page. The proteins were transferred by the wet blot method to a PVDF membrane at 100 mA overnight. The membrane was blocked with 10% BSA in TBS-T buffer. The primary antibodies were incubated at 4° C. overnight, and the HRP-labelled antibodies at room temperature with the membrane for 45 min. The proteins were detected by means of PCA-ECL solution using a chemiluminescence detector (Fusion SL, PeqLab). […]

In assay [8] the test system is mononuclear cells from MPN patients (JAK2V617F-positive). Kind of assay: CFU assay, MPN patients (PV, PMF, ET). Format: cell-based, human. On the procedure: as §5
PBMCs from PV, ET or PMF patients: 4×10^5 cells/ml
(§6) Individual cells in the CFU assay form cell colonies in culture after 12 days, unless the formation thereof is prevented by inhibitors.
Myeloproliferative neoplasia includes three conventional Philadelphia chromosome-negative (BCR-ABL-negative) disease entities: polycythemia vera (PV), essential thrombocythaemia (ET) and primary myelofibrosis (PMF). Both PV and ET can progress to become myelofibrosis (MF), which usually means a fatal deterioration in the disease state and in the success of treatment. All the MPN patients involved in these studies were JAK2V617F-positive.

The subject of assay [9] is Molm-14 cells. Kind of assay: Proliferation assay, cell count after trypan blue staining, Molm-14. Format: cell-based. The settings on record: 1 or 5 μM, 24-72 h, by comparison with PFI-1. As for the experimental part:
as §1, §2

For assay [10], the system named is mononuclear cells from AML patients. In words: CFU assay, AML patients. Format: cell-based, human. As for the experimental part:
as §5
Mononuclear cells from the bone marrow from AML patients: 7×10^5 cells/ml
Vital sterile mononuclear bone marrow cells from AML patients were cultured for 24 h in 1.5 ml of BIT Medium in 8.5 ml of IMDM medium (to which had been added 5 μl of FLT3 ligand, 10 μl of rh SCF, 2 μl of rh IL-3, 2 μl of rh G-CSF, 50 μl of ciprofloxacin and 6.99 μl of β-mercaptoethanol in 1:100 dilution), before they were used in the CFU assay.
as §6

For the compound `CN1Cc2cc(N=[S@@](C)(=O)c3ccccc3)ccc2NC1=O` [MF2-S, (S)—N-(3-methyl-2-oxo-1,2,3,4-tetrahydroquinazolin-6-yl)-S-methyl-S-phenylsulfoximine], in the assay with HEL cells [1], the “cell proliferation (cell count) of HEL” value was “significantly reduced the cell proliferation”. Besides, the “band for the PARP1 cleavage product, HEL” value in [2] (48 h, compared to PFI-1) is “more marked in HEL cells than in the case of PFI-1 treatment”. Further, in [2] (compared to MF2, MF2-R, PFI-1), the “induction of apoptosis, HEL” value is “induced apoptosis more strongly than the other compounds examined”. For the same compound, in the assay with BRD4, the “binding / specificity for BRD4 (ΔTm, in words)” value is recorded as “more specific binding of BRD4”. Moreover, the “viability of Molm-14 cells” value in the assay with Molm-14 cells [3] is reported as “significantly reduced the viability”. In addition, in assay [4] (1 μM), the “colony count, healthy CD34+ controls 3 and 4” value is reported as “reduced the colony count of the controls to a lesser degree”; the “colony count, healthy control 4” value is “not significantly reduced”. In addition, in assay [4] (5 μM), the “colony count, healthy controls 1 (PBMC) and 2 (CD34+ cells)” value was “likewise reduced the amount of colonies”. For the same compound, in the assay with HEL cells [5], the “subG1 phase (percentage of dead cells), HEL” value was “significantly higher proportions” and the “synthesis phase (S phase) of cell cycle, HEL” value is “more significantly inhibited by MF2-S than by PFI-1”. Besides, in [6], the “binding of BET family proteins (ΔTm, in words)” value is “equally good or better binding of proteins from the BET family compared to the comparative compound PFI-1”. Besides, in assay [7] (48 h), the “uncleaved PARP1, Molm-14” value is reported as “less uncleaved PARP1 was apparent”. In addition, in [7] (48 h, compared to PFI-1), the “band for the PARP1 cleavage product, Molm-14” value is “same intensity”. Also, the “induction of apoptosis, Molm-14” value in [7] (compared to MF2, MF2-R, PFI-1) was “induced apoptosis more strongly than the other compounds examined”. Further, the “colony count, PMF patient” value in assay [8] (1 μM) is reported as “very efficiently reduced the colony count”. Moreover, the “colony count, MPN patients” value in [8] (5 μM, compared to PFI-1) is given as “significantly greater reduction in each case in the colony count”. Also, in the assay on Molm-14 cells [9], the “cell proliferation (cell count) of Molm-14” value was “significantly reduced the cell proliferation”. Also, in assay [10] (1 μM), the “colony count, AML patients, 1 μM versus 5 μM PFI-1” value is reported as “just as efficient as 5 μM PFI-1”. For the same compound, the “colony count, AML patients” value in assay [10] (1 μM and 5 μM, compared to PFI-1 at same concentration) is recorded as “reduced the colony count to a significantly greater degree than PFI-1”.

The record behind these values is patent publication US12503446B2, “Bromodomain inhibitors” (FORSCHUNGSZENTRUM JÜLICH GMBH, priority 2019, dated 2025).
